Measured values: US7569586B2, “Compounds having β2 adrenergic receptor agonist and muscarinic receptor antagonist activity” (Theravance, Inc., priority 2004, dated 2009)

Key:
hM3 muscarinic receptor = molecular target: T1, hM3 muscarinic receptor (Homo sapiens, UniProt P20309); assay: Radioligand binding assay for muscarinic receptors (Assay Test Procedure B); conditions: CHO cell membranes, [3H]-NMS displacement; read-out: Ki value for the M3 muscarinic receptor
T1 construct: expressed in transfected cells; host or cells: CHO cells (membranes)
Description: CHO cell lines stably expressing cloned human hM1, hM2, hM3 and hM4 muscarinic receptor subtypes, respectively, were grown to near confluency in HAM's F-12 media supplemented with 10% FBS and 250 μg/mL Geneticin. The cells were grown in a 5% CO2, 37° C. incubator and lifted with 2 mM EDTA in dPBS. Cells were collected by 5 minute centrifugation at 650×g, and cell pellets were either stored frozen at −80° C. or membranes were prepared immediately for use. For membrane preparation, cell pellets were resuspended in lysis buffer and homogenized with a Polytron PT-2100 tissue disrupter (Kinematica AG; 20 seconds×2 bursts). Crude membranes were centrifuged at 40,000×g for 15 minutes at 4° C. The membrane pellet was then resuspended with re-suspension buffer and homogenized again with the Polytron tissue disrupter. The protein concentration of the membrane suspension was determined by the method described in Lowry et al., 1951, […], 193, 265. All membranes were stored frozen in aliquots at −80° C. or used immediately. Aliquots of prepared hM5 receptor membranes were purchased directly from Perkin Elmer and stored at −80° C. until use.
Radioligand binding assays for cloned human muscarinic receptors were performed in 96-well microtiter plates in a total assay volume of 100 μL. […] Filter plates were rinsed three times with wash buffer (10 mM HEPES) to remove unbound radioactivity. […] The plates were then counted in a PerkinElmer Topcount liquid scintillation counter (PerkinElmer Inc., Wellesley, Mass.). Binding data were analyzed by nonlinear regression analysis with the GraphPad Prism Software package (GraphPad Software, Inc., San Diego, Calif.) using the one-site competition model. Ki values for test compounds were calculated from observed IC50 values and the KD value of the radioligand using the Cheng-Prusoff equation (Cheng Y; Prusoff W H. (1973) Biochemical Pharmacology, 22(23):3099-108). […]

[1] = molecular target: T2, human β2 adrenergic receptor (Homo sapiens, UniProt P07550); assay: Whole-cell cAMP Flashplate assay in CHO cell lines heterologously expressing human β2 adrenergic receptor (Assay Test Procedure C); type: cell-based; parameters: expressed in transfected cells; host or cells: CHO-K1 cells; conditions: CHO-K1 cells
Description: cAMP assays were performed in a radioimmunoassay format using the Flashplate Adenylyl Cyclase Activation Assay System with [^125I]-cAMP (NEN SMP004, PerkinElmer Life Sciences Inc., Boston, Mass.), according to the manufacturers instructions. For the determination of P receptor agonist potency (EC50), CHO-K1 cell lines stably expressing cloned human β1, β2 or β3 adrenergic receptors were grown to near confluency in HAM's F-12 media supplemented with 10% FBS and Geneticin (250 μg/mL). Cells were rinsed with PBS and detached in dPBS (Dulbecco's Phosphate Buffered Saline, without CaCl2 and MgCl2) containing 2 mM EDTA or Trypsin-EDTA solution (0.05% trypsin/0.53 mM EDTA). After counting cells in Coulter cell counter, cells were pelleted by centrifugation at 1,000 rpm and re-suspended in stimulation buffer containing IBMX (PerkinElmer Kit) pre-warmed to room temperature to a concentration of 1.6×10^6 to 2.8×10^6 cells/mL. About 60,000 to 80,000 cells per well were used in this assay. Test compounds (10 mM in DMSO) were diluted into PBS containing 0.1% BSA in Beckman Biomek-2000 and tested at 11 different concentrations ranging from 100 μM to 1 pM. Reactions were incubated for 10 min at 37° C. and stopped by adding 100 μL of cold detection buffer containing [^125I]-cAMP (NEN SMP004, PerkinElmer Life Sciences, Boston, Mass.). The amount of cAMP produced (pmol/well) was calculated based on the counts observed for the samples and cAMP standards as described in the manufacturer's user manual. Data were analyzed by nonlinear regression analysis with the GraphPad Prism Software package (GraphPad Software, Inc., San Diego, Calif.) with the sigmoidal equation. The Cheng-Prusoff equation (Cheng Y, and Prusoff W H., Biochemical Pharmacology, 1973, 22, 23, 3099-108) was used to calculate the […].

[2] = molecular target: T2, human β2 adrenergic receptor; assay: Whole-cell cAMP Flashplate assay with lung epithelial cell line BEAS-2B endogenously expressing human β2 adrenergic receptor (Assay Test Procedure E); type: cell-based; conditions: BEAS-2B cells
Description: For the determination of agonist potencies and efficacies (intrinsic activities) in a cell line expressing endogenous levels of the β2 adrenergic receptor, a human lung epithelial cell line (BEAS-2B) was used (ATCC CRL-9609, American Type Culture Collection, Manassas, Va.) (January B, et al., British Journal of Pharmacology, 1998, 123, 4, 701-11). Cells were grown to 75-90% confluency in complete, serum-free medium (LHC-9 MEDIUM containing Epinephrine and Retinoic Acid, cat # 181-500, Biosource International, Camarillo, Calif.). The day before the assay, medium was switched to LHC-8 (no epinephrine or retinoic acid, cat # 141-500, Biosource International, Camarillo, Calif.). cAMP assays were performed in a radioimmunoassay format using the Flashplate Adenylyl Cyclase Activation Assay System with [^125I]-cAMP (NEN SMP004, PerkinElmer Life Sciences Inc., Boston, Mass.), according to the manufacturers instructions. On the day of the assay, cells were rinsed with PBS, lifted by scraping with 5 mM EDTA in PBS, and counted. Cells were pelleted by centrifugation at 1,000 rpm and re-suspended in stimulation buffer pre-warmed to 37° C. at a final concentration of 600,000 cells/mL. Cells were used at a final concentration of 100,000 to 120,000 cells/well in this assay. […] Plates were sealed, incubated over night at 4° C. and counted the next morning in a Topcount scintillation counter (Packard BioScience Co., Meriden, Conn.). The amount of cAMP produced per mL of reaction was calculated based on the counts observed for samples and cAMP standards, as described in the manufacturer's user manual. Data were analyzed by nonlinear regression analysis with the GraphPad Prism Software package (GraphPad Software, Inc., San Diego, Calif.) using the 4-parameter model for sigmoidal dose-response.
if desired, test compound efficacity (% Eff) was calculated from the ratio of the observed Emax (TOP of the fitted curve) and the maximal response obtained for isoproterenol dose response curve and was expressed as % Eff relative to isoproterenol.

[3] = molecular target: T2, human β2 adrenergic receptor; assay: Radioligand binding assay for human β2 adrenergic receptor (Assay Test Procedure A); parameters: expressed in transfected cells; host or cells: CHO-K1 cells; conditions: CHO cell membranes, [3H]-dihydroalprenolol displacement
Description: Chinese hamster ovarian (CHO) cell lines stably expressing cloned human β1, β2 or β3 adrenergic receptors, respectively, were grown to near confluency in Hams F-12 media with 10% FBS in the presence of 500 μg/mL Geneticin. The cell monolayer was lifted with 2 mM EDTA in PBS. Cells were pelleted by centrifugation at 1,000 rpm, and cell pellets were either stored frozen at −80° C. or membranes were prepared immediately for use. For preparation of β1 and β2 receptor expressing membranes, cell pellets were re-suspended in lysis buffer (10 mM HEPES/HCl, 10 mM EDTA, pH 7.4 at 4° C.) and homogenized using a tight-fitting Dounce glass homogenizer (30 strokes) on ice. […] The protein concentration of the membrane suspension was determined by the methods described in Lowry et al., 1951, Journal of Biological Chemistry, 193, 265; and Bradford, Analytical Biochemistry, 1976, 72, 248-54. […]
Binding assays were performed in 96-well microtiter plates in a total assay volume of 100 μL with 10-15 μg of membrane protein containing the human β1, β2 or β3 adrenergic receptors in assay buffer (75 mM Tris/HCl pH 7.4 at 25° C., 12.5 mM MgCl2, 1 mM EDTA, 0.2% BSA). […] Non-specific binding was determined in the presence of 10 μM propranolol. […] Filter plates were washed three times with filtration buffer (75 mM Tris/HCl pH 7.4 at 4° C., 12.5 mM MgCl2, 1 mM EDTA) to remove unbound radioactivity. […]

T1 sequence (P20309 whole entry): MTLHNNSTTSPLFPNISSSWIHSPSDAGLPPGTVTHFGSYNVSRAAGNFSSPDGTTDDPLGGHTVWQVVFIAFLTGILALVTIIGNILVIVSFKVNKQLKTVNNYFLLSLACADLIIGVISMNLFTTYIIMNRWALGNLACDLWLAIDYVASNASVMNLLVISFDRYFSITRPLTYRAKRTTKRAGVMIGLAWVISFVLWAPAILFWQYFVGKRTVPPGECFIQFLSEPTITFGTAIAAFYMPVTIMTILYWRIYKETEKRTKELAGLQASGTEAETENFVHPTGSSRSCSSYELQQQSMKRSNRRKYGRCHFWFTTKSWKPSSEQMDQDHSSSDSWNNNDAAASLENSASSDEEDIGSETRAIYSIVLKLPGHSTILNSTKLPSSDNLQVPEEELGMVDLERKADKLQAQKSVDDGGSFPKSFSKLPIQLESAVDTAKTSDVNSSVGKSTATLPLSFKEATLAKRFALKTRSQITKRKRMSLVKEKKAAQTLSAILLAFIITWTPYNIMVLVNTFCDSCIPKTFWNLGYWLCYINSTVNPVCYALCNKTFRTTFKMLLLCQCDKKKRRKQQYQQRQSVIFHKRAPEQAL
T2 sequence (P07550 whole entry): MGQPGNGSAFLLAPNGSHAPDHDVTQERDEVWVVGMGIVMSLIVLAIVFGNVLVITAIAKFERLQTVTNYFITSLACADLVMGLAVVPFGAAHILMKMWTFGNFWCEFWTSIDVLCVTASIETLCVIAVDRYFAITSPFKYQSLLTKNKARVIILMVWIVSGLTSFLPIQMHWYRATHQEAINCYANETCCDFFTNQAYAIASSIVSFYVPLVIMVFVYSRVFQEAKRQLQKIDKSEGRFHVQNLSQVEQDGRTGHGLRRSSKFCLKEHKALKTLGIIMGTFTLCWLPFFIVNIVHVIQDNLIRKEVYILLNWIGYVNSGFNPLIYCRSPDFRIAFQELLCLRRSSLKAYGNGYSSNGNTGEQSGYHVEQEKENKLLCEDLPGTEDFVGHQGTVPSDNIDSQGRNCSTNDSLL

Ki (hM3 muscarinic receptor) [nM]	EC50 [1] [nM]	EC50 [2] [nM]	Ki [3] [nM]	Structure (SMILES)
< 150	< 10	< 20	–	O=C(Nc1c(F)cc(F)cc1-c1cccnc1)OC1CCN(CCCCCCCCCNC[C@H](O)c2ccc(O)c3[nH]c(=O)ccc23)CC1 [Example 3, (2,4-Difluoro-6-pyridin-3-ylphenyl)carbamic Acid 1-{9-[(R)-2-Hydroxy-2-(8-hydroxy-2-oxo-1,2-dihydroquinolin-5-yl)ethylamino]nonyl}piperidin-4-yl Ester]
< 10	< 10	< 20	< 10	O=C(Nc1ccccc1-c1ccsc1)OC1CCN(CCCCCCCCCNC[C@H](O)c2ccc(O)c3[nH]c(=O)ccc23)CC1 [Example 2, (2-Thien-3-ylphenyl)carbamic Acid 1-{9-[(R)-2-Hydroxy-2-(8-hydroxy-2-oxo-1,2-dihydroquinolin-5-yl)ethylamino]nonyl}piperidin-4-yl Ester]
< 10	< 10	< 20	< 10	O=C(Nc1ccccc1-c1cccs1)OC1CCN(CCCCCCCCCNC[C@H](O)c2ccc(O)c3[nH]c(=O)ccc23)CC1 [Example 1, (2-Thien-2-ylphenyl)carbamic Acid 1-{9-[(R)-2-Hydroxy-2-(8-hydroxy-2-oxo-1,2-dihydroquinolin-5-yl)ethylamino]nonyl}piperidin-4-yl Ester]
